Each block holds one molecule with its values, some of them ahead of it.
Legend:
Test in all cases: Caliper, Mobility shift assay off-chip
Conditions in all cases: compound 10.0 µM
AKT1 (human) = AKT1 (human) (UniProt P31749)
ALK (human) = ALK (human) (UniProt Q9UM73)
BRSK2 (human) = BRSK2 (human) (UniProt Q8IWQ3)
BTK (human) = BTK (human) (UniProt Q06187)
CDK2 CCNA2 (human) = CDK2 CCNA2 (human) (UniProt P24941+P20248)
CHEK1 (human) = CHEK1 (human) (UniProt O14757)
CSK (human) = CSK (human) (UniProt P41240)
EGFR (human) = EGFR (human) (UniProt P00533)
EPHA2 (human) = EPHA2 (human) (UniProt P29317)
EPHA4 (human) = EPHA4 (human) (UniProt P54764)
FGFR1 (human) = FGFR1 (human) (UniProt P11362)
FGFR3 (human) = FGFR3 (human) (UniProt P22607)
FLT3 (human) = FLT3 (human) (UniProt P36888)
IGF1R (human) = IGF1R (human) (UniProt P08069)
IKBKB (human) = IKBKB (human) (UniProt O14920)
KDR (human) = KDR (human) (UniProt P35968)
KIT (human) = KIT (human) (UniProt P10721)
MAP3K7 (human) = MAP3K7 (human) (UniProt O43318)
MAPK11 (human) = MAPK11 (human) (UniProt Q15759)
MAPK12 (human) = MAPK12 (human) (UniProt P53778)
MAPK13 (human) = MAPK13 (human) (UniProt O15264)
MAPK8 (human) = MAPK8 (human) (UniProt P45983)
MAPKAPK2 (human) = MAPKAPK2 (human) (UniProt P49137)
MAPKAPK5 (human) = MAPKAPK5 (human) (UniProt Q8IW41)
NEK2 (human) = NEK2 (human) (UniProt P51955)
NEK6 (human) = NEK6 (human) (UniProt Q9HC98)
PAK4 (human) = PAK4 (human) (UniProt O96013)
PIM1 (human) = PIM1 (human) (UniProt P11309)
PIM2 (human) = PIM2 (human) (UniProt Q9P1W9)
PLK3 (human) = PLK3 (human) (UniProt Q9H4B4)
PRKCA (human) = PRKCA (human) (UniProt P17252)
PRKCG (human) = PRKCG (human) (UniProt P05129)
PRKCI (human) = PRKCI (human) (UniProt P41743)
RIPK2 (human) = RIPK2 (human) (UniProt O43353)
ROCK1 (human) = ROCK1 (human) (UniProt Q13464)
RPS6KA1 KD1 KD2 (human) = RPS6KA1 KD1 KD2 (human) (UniProt Q15418)
RPS6KA5 KD1 KD2 (human) = RPS6KA5 KD1 KD2 (human) (UniProt O75582)
RPS6KB1 (human) = RPS6KB1 (human) (UniProt P23443)
SRC (human) = SRC (human) (UniProt P12931)
TEK (human) = TEK (human) (UniProt Q02763)
ZAP70 (human) = ZAP70 (human) (UniProt P43403)

Sequence of RIPK2 (human) (O43353 whole entry, looked up): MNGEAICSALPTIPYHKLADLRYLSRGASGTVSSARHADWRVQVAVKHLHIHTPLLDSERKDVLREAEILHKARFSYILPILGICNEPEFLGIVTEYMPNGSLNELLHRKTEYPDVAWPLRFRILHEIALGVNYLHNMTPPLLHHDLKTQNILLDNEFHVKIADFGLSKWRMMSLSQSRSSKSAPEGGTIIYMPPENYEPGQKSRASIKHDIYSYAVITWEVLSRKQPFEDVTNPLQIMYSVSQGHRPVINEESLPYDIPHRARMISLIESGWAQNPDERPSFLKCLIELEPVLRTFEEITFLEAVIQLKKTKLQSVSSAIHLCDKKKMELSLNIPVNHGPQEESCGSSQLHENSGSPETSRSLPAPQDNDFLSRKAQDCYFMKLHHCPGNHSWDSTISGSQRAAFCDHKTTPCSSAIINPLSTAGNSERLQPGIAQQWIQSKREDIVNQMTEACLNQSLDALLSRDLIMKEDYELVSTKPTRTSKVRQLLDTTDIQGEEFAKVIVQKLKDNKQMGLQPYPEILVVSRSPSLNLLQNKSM
Sequence of PLK3 (human) (Q9H4B4 whole entry, looked up): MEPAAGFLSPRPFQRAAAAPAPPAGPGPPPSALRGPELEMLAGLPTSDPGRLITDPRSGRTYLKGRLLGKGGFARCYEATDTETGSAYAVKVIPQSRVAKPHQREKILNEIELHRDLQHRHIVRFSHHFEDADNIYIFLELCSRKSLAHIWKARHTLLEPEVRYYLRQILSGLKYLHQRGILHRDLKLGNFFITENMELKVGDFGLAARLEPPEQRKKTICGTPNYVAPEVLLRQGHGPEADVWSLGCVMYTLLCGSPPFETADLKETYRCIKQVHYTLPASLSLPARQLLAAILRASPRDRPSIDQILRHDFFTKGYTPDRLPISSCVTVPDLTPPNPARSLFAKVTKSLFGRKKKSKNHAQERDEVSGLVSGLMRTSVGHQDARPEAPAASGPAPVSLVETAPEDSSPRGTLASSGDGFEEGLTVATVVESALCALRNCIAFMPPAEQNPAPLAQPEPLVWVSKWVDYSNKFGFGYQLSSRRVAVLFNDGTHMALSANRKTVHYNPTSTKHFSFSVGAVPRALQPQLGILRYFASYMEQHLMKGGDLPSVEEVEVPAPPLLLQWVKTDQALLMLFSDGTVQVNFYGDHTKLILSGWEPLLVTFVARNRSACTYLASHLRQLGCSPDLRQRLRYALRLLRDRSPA
Sequence of FGFR1 (human) (P11362 whole entry, looked up): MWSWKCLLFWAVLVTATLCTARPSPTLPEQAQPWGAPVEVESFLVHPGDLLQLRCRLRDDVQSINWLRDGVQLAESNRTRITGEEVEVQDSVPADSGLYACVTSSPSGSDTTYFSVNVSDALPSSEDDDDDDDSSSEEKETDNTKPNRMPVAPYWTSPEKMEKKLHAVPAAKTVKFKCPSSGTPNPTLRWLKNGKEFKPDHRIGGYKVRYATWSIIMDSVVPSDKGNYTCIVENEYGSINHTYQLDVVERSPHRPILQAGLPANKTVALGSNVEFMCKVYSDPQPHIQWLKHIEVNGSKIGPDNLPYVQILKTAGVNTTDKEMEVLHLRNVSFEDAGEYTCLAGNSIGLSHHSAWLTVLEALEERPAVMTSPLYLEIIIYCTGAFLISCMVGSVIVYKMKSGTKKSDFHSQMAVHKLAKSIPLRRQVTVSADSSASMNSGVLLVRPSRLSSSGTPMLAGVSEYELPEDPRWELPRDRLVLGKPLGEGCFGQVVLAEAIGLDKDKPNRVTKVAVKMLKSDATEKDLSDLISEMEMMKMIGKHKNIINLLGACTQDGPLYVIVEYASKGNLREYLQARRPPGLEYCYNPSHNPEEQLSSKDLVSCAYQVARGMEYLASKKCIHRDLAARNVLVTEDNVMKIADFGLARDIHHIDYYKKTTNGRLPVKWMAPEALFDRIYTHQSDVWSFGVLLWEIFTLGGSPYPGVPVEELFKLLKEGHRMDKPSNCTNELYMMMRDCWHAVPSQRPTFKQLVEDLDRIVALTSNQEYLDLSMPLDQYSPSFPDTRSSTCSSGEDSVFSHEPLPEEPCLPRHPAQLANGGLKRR
Sequence of MAP3K7 (human) (O43318 whole entry, looked up): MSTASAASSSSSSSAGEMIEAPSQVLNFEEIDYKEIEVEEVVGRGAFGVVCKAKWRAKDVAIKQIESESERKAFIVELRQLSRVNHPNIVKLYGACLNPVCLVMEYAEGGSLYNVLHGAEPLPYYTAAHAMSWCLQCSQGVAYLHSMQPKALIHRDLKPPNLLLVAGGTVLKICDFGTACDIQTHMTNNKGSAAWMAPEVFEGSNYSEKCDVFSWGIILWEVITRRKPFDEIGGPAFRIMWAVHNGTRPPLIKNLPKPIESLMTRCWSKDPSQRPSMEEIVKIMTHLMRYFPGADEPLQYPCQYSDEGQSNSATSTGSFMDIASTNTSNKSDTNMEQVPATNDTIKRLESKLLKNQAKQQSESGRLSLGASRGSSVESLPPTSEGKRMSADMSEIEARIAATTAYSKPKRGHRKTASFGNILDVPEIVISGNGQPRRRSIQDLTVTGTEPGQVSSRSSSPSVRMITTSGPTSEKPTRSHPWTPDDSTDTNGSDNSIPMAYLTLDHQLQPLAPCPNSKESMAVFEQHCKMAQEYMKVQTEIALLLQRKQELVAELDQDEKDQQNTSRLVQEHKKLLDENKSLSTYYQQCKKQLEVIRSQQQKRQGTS
Sequence of IGF1R (human) (P08069 whole entry, looked up): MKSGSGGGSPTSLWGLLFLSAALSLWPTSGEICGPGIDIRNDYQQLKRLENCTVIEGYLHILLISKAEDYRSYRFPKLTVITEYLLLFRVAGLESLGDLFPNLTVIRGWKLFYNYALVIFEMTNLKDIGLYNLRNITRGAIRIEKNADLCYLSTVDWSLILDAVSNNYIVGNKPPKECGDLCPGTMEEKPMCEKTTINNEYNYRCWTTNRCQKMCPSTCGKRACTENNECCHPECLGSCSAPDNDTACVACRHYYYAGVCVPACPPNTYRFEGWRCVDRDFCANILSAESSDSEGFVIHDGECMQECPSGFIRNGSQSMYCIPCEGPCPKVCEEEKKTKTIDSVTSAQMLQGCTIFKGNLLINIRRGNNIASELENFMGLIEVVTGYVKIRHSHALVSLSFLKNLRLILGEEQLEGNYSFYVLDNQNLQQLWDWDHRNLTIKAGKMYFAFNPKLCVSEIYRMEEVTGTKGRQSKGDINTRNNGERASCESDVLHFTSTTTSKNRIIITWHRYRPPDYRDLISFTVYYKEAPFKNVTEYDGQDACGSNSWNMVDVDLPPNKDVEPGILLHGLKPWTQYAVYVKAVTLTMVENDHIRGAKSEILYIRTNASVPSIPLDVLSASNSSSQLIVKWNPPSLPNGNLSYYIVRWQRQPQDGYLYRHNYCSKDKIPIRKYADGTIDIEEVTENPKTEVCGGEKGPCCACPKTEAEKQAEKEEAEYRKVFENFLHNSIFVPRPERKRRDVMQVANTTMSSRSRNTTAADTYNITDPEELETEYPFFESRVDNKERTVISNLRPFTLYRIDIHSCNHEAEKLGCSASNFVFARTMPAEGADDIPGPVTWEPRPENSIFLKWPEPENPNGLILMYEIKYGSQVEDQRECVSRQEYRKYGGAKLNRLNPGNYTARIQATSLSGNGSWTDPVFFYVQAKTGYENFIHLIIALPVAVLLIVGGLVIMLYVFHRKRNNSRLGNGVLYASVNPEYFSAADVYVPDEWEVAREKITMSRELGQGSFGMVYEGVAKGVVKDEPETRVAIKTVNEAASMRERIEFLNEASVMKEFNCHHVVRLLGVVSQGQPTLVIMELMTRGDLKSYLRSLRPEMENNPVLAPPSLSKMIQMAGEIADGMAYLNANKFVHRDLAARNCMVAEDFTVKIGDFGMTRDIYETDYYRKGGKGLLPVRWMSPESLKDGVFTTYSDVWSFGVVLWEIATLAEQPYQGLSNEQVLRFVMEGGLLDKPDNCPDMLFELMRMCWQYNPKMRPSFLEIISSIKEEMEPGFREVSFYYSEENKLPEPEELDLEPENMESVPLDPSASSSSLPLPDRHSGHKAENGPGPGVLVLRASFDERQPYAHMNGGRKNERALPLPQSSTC
Sequence of MAPK11 (human) (Q15759 whole entry, looked up): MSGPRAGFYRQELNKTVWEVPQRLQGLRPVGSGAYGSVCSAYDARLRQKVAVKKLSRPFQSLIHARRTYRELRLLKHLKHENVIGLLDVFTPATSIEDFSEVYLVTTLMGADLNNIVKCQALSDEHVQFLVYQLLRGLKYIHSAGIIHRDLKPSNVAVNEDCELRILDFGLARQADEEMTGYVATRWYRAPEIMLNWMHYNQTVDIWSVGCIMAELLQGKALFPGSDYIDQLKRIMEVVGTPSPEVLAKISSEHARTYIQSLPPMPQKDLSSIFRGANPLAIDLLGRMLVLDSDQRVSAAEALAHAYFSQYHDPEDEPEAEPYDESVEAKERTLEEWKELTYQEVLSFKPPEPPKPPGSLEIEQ

residual activity (AKT1 (human)): 25% | residual activity (ALK (human)): 42% | residual activity (BRSK2 (human)): 57% | residual activity (BTK (human)): 75% | residual activity (CDK2 CCNA2 (human)): 118% | residual activity (CHEK1 (human)): 75% | residual activity (CSK (human)): 82% | residual activity (EGFR (human)): 71% | residual activity (EPHA2 (human)): 95% | residual activity (EPHA4 (human)): 77% | residual activity (FGFR1 (human)): 4% | residual activity (FGFR3 (human)): 25% | residual activity (FLT3 (human)): 8% | residual activity (IGF1R (human)): 66% | residual activity (IKBKB (human)): 39% | residual activity (KDR (human)): 50% | residual activity (KIT (human)): 71% | residual activity (MAP3K7 (human)): 83% | residual activity (MAPK11 (human)): 81% | residual activity (MAPK12 (human)): 85% | residual activity (MAPK13 (human)): 43% | residual activity (MAPK8 (human)): 55% | residual activity (MAPKAPK2 (human)): 78% | residual activity (MAPKAPK5 (human)): 50% | residual activity (NEK2 (human)): 80% | residual activity (NEK6 (human)): 109% | residual activity (PAK4 (human)): 106% | residual activity (PIM1 (human)): 3% | residual activity (PIM2 (human)): 24% | residual activity (PLK3 (human)): 110% | residual activity (PRKCA (human)): 94% | residual activity (PRKCG (human)): 88% | residual activity (PRKCI (human)): 107% | residual activity (RIPK2 (human)): 78% | residual activity (ROCK1 (human)): 46% | residual activity (RPS6KA1 KD1 KD2 (human)): 13% | residual activity (RPS6KA5 KD1 KD2 (human)): 39% | residual activity (RPS6KB1 (human)): 0% | residual activity (SRC (human)): 14% | residual activity (TEK (human)): 5% | residual activity (ZAP70 (human)): 99%
Structure (SMILES): COc1ccc(C#Cc2ccc3ncc4ncn(-c5ccc(CCN)cc5)c4c3c2)cc1

residual activity (AKT1 (human)): 39% | residual activity (ALK (human)): 26% | residual activity (BRSK2 (human)): 1% | residual activity (BTK (human)): 83% | residual activity (CDK2 CCNA2 (human)): 53% | residual activity (CHEK1 (human)): 10% | residual activity (CSK (human)): 101% | residual activity (EGFR (human)): 75% | residual activity (EPHA2 (human)): 96% | residual activity (EPHA4 (human)): 101% | residual activity (FGFR1 (human)): 32% | residual activity (FGFR3 (human)): 30% | residual activity (FLT3 (human)): 25% | residual activity (IGF1R (human)): 61% | residual activity (IKBKB (human)): 15% | residual activity (KDR (human)): 92% | residual activity (KIT (human)): 40% | residual activity (MAP3K7 (human)): 12% | residual activity (MAPK11 (human)): 25% | residual activity (MAPK12 (human)): 46% | residual activity (MAPK13 (human)): 46% | residual activity (MAPK8 (human)): 10% | residual activity (MAPKAPK2 (human)): 17% | residual activity (MAPKAPK5 (human)): 17% | residual activity (NEK2 (human)): 96% | residual activity (NEK6 (human)): 48% | residual activity (PAK4 (human)): 78% | residual activity (PIM1 (human)): 49% | residual activity (PIM2 (human)): 36% | residual activity (PLK3 (human)): 54% | residual activity (PRKCA (human)): 8% | residual activity (PRKCG (human)): 21% | residual activity (PRKCI (human)): 73% | residual activity (RIPK2 (human)): 20% | residual activity (ROCK1 (human)): 26% | residual activity (RPS6KA1 KD1 KD2 (human)): 68% | residual activity (RPS6KA5 KD1 KD2 (human)): 25% | residual activity (RPS6KB1 (human)): 17% | residual activity (SRC (human)): 94% | residual activity (TEK (human)): 105% | residual activity (ZAP70 (human)): 117%
Structure (SMILES): CC(C)(C)c1nc2c3ccc(F)cc3c3c(=O)[nH]ccc3c2[nH]1

— the kinase profiling compilation of Christmann-Franck et al. (2016)
